# Measurements as given in US20090233796A1, “HERBICIDAL COMPOSITION” (SYNGENTA CROP PROTECTION, INC., priority 2004, published 2009).
# What was measured:
# Type in all cases: in vivo
# STELLARIA MEDIA = experiment: Compound (A) with triasulfuron, weed plots; conditions: 26 g per hectare; 30 DAA; No. 3.1
# Experimental: In these tests, various weeds were treated with triasulfuron alone at a rate equivalent to 26 g per hectare, Compound (A) alone at a rate equivalent to 10 g per hectare, and to a mixture of triasulfuron and Compound (A) at rates equivalent to the sum of these. The compositions were formulated as an emulsifyable concentrate (EC).
# The results in the table under each application are the percentage of the plants that were killed.
# CONYZA SP. = experiment: Compound (A) with paraquat, weed plots; conditions: 700 g/ha, 5 DAA
# Experimental: (§1) In these tests, various weeds were treated with paraquat alone at rates equivalent to 700 g per hectare and 840 g per hectare, compound (A) alone at rates equivalent to 10 g per hectare and 20 g per hectare, and with a mixture of paraquat and compound (A) at rates equivalent to the sum of these. The compositions were formulated as an emulsifyable concentrate (EC).
# (§2) The results in the table under each application are the percentage of the weeds plants that were killed.
# CYPERUS ROTUNDUS = experiment: Compound (A) with paraquat, weed plots; conditions: 840 g/ha; 56 DAA; No. 1.11
# Experimental: as §1, §2
# DIGITARIA CILIARIS = experiment: Compound (A) with paraquat, weed plots; conditions: 700 g/ha; 51 DAA; No. 1.7
# Experimental: as §1, §2
# E[…]-GALLI = experiment: Compound (A) with paraquat, weed plots; conditions: 700 g/ha; 51 DAA; No. 1.8
# Experimental: as §1, §2
# LAMIUM PURPUREUM = experiment: Compound (A) with paraquat, weed plots; conditions: 700 g/ha; 2 DAA; No. 1.5
# Experimental: as §1, §2
# LOLIUM RIGIDUM = experiment: Compound (A) with paraquat, weed plots; conditions: 700 g/ha; 41 DAA; No. 1.4
# Experimental: as §1, §2
# SETARIA SP. = experiment: Compound (A) with paraquat, weed plots; conditions: 700 g/ha; 27 DAA; No. 1.2
# Experimental: as §1, §2
# SETARIA VIRIDIS = experiment: Compound (A) with paraquat, weed plots; conditions: 700 g/ha; 43 DAA; No. 1.3
# Experimental: as §1, §2
# SONCHUS ASPER = experiment: Compound (A) with paraquat, weed plots; conditions: 840 g/ha; 32 DAA; No. 1.10
# Experimental: as §1, §2
# VERONICA PERSICA = experiment: Compound (A) with paraquat, weed plots; conditions: 700 g/ha; 69 DAA; No. 1.6
# Experimental: as §1, §2
SMILES,percentage of the plants that were killed (STELLARIA MEDIA),percentage of the weeds plants that were killed (CONYZA SP.; No. 1.1),percentage of the weeds plants that were killed (CONYZA SP.; No. 1.9),percentage of the weeds plants that were killed (CYPERUS ROTUNDUS),percentage of the weeds plants that were killed (DIGITARIA CILIARIS),percentage of the weeds plants that were killed (E[…]-GALLI),percentage of the weeds plants that were killed (LAMIUM PURPUREUM),percentage of the weeds plants that were killed (LOLIUM RIGIDUM),percentage of the weeds plants that were killed (SETARIA SP.),percentage of the weeds plants that were killed (SETARIA VIRIDIS),percentage of the weeds plants that were killed (SONCHUS ASPER),percentage of the weeds plants that were killed (VERONICA PERSICA)
"COc1nc(C)nc(NC(=O)NS(=O)(=O)c2ccccc2OCCCl)n1 [Triasulfuron, triasulfuron, reference compound]",25%,–,–,–,–,–,–,–,–,–,–,–
"C[n+]1ccc(-c2cc[n+](C)cc2)cc1 [paraquat, reference compound]",–,2%,2%,65%,0%,0%,53%,53%,0%,0%,0%,25%
